Experimental data from patent US20120028278A1, “CELL LINES EXPRESSING GUANYLATE CYCLASE-C AND METHODS OF USING THEM” (CHROMOCELL CORPORATION, priority 2009, published 2012).
Where a SMILES comes first, the peptide text is derived from it. Bridges are numbered along the chain shown (N, C = ends).

Experiments:
human GC-C [1] = biological target: T1, human GC-C (Homo sapiens, UniProt P25092, F281L); assay: competitive ELISA for detection of cGMP in the produced GC-C-expressing cell line; type: cell-based; settings: 100 nM guanylin; cell lysate from GC-C-expressing cell line; FIG. 1
T1 construct: expressed in transfected cells; CMV promoter
T1 sequence (P25092 24-1073 F281L): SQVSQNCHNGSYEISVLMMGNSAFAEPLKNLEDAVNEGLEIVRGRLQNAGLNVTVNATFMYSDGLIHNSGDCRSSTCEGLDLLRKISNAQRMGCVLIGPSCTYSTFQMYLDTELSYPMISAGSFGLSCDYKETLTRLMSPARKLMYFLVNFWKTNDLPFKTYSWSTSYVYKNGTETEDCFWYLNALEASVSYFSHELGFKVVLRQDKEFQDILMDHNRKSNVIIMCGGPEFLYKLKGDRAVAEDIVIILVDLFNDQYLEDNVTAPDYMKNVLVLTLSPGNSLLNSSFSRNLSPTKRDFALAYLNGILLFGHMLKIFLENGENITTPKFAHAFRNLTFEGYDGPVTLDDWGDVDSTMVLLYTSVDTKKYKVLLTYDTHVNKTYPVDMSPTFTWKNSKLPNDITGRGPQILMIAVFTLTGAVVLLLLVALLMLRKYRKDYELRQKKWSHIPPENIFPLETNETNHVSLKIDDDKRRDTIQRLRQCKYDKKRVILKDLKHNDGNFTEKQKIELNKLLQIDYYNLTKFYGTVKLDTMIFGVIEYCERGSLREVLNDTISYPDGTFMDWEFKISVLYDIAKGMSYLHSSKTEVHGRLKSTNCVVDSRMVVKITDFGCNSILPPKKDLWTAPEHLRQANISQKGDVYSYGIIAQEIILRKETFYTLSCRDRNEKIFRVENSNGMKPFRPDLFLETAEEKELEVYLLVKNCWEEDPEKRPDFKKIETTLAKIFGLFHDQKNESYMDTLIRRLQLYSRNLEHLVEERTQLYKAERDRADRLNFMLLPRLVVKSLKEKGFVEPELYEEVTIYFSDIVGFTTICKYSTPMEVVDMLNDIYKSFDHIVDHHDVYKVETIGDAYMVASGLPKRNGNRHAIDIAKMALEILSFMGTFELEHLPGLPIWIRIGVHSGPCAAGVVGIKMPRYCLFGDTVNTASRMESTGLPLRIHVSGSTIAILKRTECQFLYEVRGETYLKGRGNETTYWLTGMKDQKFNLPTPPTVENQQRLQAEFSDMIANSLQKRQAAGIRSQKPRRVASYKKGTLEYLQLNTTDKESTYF
Protocol: A competitive ELISA for detection of cGMP was used to characterize native GC-C function in the produced GC-C-expressing cell line. Cells expressing GC-C were maintained under standard cell culture conditions in DMEM supplemented with 10% fetal bovine serum, glutamine and HEPES and grown in T175 cm flasks. For the ELISA, the cells were plated into coated 96-well plates (poly-D-lysine).
(§1) Cells were washed twice with serum-free medium and incubated with 1 mM IBMX for 30 minutes. Desired activators (i.e., guanylin, 0.001-40 μM) were then added to the cells and incubated for 30-40 minutes. Supernatant was removed, and the cells were washed with TBS buffer. […]. This was followed by lysis with 0.1N HCl and a freeze/thaw cycle at −20° C./room temperature. Defrosted lysates (samples were spun in Eppendorf tubes at 10,000 rpm) were centrifuged to pellet cell debris. The cleared supernatant lysate was then transferred to ELISA plates.
All of the following steps were performed at room temperature, unless otherwise indicated. ELISA plates were coated with anti-IgG antibodies in coating buffer (Na-carbonate/bi-carbonate buffer, 0.1 M final, pH 9.6) overnight at 4° C. […] The absorbance was then read at 405 nm on a SAFIRE^2™ plate reader (Tecan).
Maximum absorbance was seen when no cell lysate was used in the ELISA (Control).

other cell lines = settings: low concentrations of guanylin, Forte et al., Endocr. 140(4):1800-1806 (1999); cited from earlier work
human GC-C [2] = biological target: T1, human GC-C; assay: Direct Cyclic GMP Enzyme Immunoassay Kit, cGMP in the produced GC-C-expressing cell line (guanylin dose-response and comparison with parental cells); type: cell-based
Protocol: Populations of cells were tested using functional criteria. The Direct Cyclic GMP Enzyme Immunoassay Kit (Cat. 900-014; AssayDesigns, Inc.) was used according to manufacturer's instructions: (http://www.assaydesigns.com/objects/catalog//product/extras/900-014.pdf). Cells were tested at 4 different densities in 96- or 384-well plates and responses were analyzed. The following conditions were used for the GC-C-expressing cell lines of the invention:
as §1
The cGMP level in the produced GC-C-expressing cell line treated with 100 nM guanylin was also compared to that of parental cell line control samples not expressing GC-C (not shown) using the Direct Cyclic GMP Enzyme Immunoassay Kit (Cat. 900-014; AssayDesigns, Inc.).
For guanylin dose-response experiments, cells of the produced GC-C-expressing cell line, plated at densities of 20,000, 40,000, 60,000, 80,000, 120,000 and 160,000 cells/well in a 96-well plate, were challenged with increasing concentration of guanylin for 30 minutes (see FIG. 2). […] 140(4):1800-1806 (1999)), indicating the potency of the clone.

[3] = biological target: human guanylate cyclase-C (GC-C) (human) (UniProt P25092); assay: cell-based or functional assay
Chain of human guanylate cyclase-C (GC-C) (human) (P25092 24-1073 F281L limits assumed): as the sequence (P25092 24-1073 F281L) above

Row | Compound | absorbance (corresponding to cGMP levels) vs control without cell lysate (human GC-C [1]) | level of cGMP previously reported (other cell lines) | absorbance (corresponding to cGMP levels) vs parental cells not expressing GC-C (human GC-C [2]; 100 nM guanylin, compared with parental cells treated and untreated with guanylin) | EC50 (human GC-C [2]; produced GC-C-expressing 293T cell line, guanylin 30 minutes, non-linear regression, GraphPad Prism 5.0) | level of cGMP (human GC-C [2]; produced GC-C-expressing cell line treated with low concentrations of guanylin) | EC50 of guanylin dose-response, cellular cGMP level (absorbance, Direct Cyclic GMP Enzyme Immunoassay Kit) [3] | level of cGMP in the GC-C-expressing cell line treated with low concentrations of guanylin [3]
1 | CC[C@H](C)[C@@H]1NC(=O)[C@H](CCC(=O)O)NC(=O)[C@@H](NC(=O)[C@@H](NC(=O)CNC(=O)[C@@H]2CCCN2)[C@@H](C)O)CSSC[C@@H]2NC(=O)[C@H](C)NC(=O)[C@H](C)NC(=O)[C@H](Cc3ccc(O)cc3)NC(=O)[C@H](C)NC(=O)[C@H](CSSC[C@@H](C(=O)O)NC(=O)CNC(=O)[C@H]([C@@H](C)O)NC2=O)NC1=O [guanylin] (H-PGTCEICAYAACTGC-OH; disulfide 4-12, 7-15 (inferred); N-terminus and C-terminus assumed) | Reduction in absorbance | 3.5 pmol/mL | greater reduction in absorbance | ~1.1 nM | 6 pmol/mL | – | –
2 | guanylin (peptide) | – | – | – | – | – | 1.1 nM | 6 pmol/mL
